Data: patent publication US20140171429A1, “BICYCLIC INHIBITORS OF ALK” (ABBVIE INC., priority 2011, published 2014)

target: T1, ALK (Homo sapiens, UniProt Q9UM73); assay: ALK kinase assay (HTRF_ALK); assay type: biochemical; conditions: apparent Ki converted from IC50 by the Cheng-Prusoff relationship; ALK (Millipore), 50 μM ATP, 1 h at room temperature
T1 construct: purchased Millipore
T1 sequence (Q9UM73 19-1620): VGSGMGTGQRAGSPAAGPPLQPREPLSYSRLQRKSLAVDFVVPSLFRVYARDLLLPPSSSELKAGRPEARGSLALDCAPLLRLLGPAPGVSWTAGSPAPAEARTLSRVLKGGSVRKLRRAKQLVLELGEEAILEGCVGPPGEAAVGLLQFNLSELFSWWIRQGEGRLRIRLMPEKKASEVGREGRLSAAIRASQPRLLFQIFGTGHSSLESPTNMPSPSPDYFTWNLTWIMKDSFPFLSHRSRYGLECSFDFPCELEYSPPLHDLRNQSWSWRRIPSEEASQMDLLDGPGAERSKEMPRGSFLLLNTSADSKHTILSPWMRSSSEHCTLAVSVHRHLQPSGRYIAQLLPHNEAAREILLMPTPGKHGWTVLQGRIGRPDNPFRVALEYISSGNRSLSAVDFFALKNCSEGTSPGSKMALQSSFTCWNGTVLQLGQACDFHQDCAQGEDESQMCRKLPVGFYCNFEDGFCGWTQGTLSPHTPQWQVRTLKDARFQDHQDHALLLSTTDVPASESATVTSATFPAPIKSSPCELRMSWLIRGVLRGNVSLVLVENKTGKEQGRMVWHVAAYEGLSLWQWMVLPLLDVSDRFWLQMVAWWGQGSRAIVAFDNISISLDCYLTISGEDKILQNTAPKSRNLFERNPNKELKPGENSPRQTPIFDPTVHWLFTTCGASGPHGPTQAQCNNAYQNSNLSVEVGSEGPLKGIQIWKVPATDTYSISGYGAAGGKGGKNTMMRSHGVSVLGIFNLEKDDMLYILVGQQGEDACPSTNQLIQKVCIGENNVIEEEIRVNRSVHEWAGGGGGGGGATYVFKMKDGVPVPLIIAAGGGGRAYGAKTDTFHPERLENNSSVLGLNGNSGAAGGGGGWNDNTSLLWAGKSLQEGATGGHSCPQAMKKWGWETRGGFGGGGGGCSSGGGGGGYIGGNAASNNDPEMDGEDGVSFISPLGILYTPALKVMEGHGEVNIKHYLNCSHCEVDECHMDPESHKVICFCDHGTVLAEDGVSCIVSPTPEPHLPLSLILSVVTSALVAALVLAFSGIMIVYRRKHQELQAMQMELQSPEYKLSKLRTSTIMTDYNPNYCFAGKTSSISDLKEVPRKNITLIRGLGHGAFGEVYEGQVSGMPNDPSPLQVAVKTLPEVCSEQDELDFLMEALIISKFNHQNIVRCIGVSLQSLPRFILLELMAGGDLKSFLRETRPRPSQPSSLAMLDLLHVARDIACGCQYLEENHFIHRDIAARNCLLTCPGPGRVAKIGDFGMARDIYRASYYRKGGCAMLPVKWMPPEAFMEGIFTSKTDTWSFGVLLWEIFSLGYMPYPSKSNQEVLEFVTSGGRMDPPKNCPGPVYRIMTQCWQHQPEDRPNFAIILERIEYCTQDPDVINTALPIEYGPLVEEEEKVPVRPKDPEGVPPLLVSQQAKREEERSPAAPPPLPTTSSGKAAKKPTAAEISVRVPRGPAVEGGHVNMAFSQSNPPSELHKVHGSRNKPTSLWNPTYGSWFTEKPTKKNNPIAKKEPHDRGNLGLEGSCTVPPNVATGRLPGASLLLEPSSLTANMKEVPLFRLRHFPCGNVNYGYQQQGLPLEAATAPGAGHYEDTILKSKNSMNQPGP

Structure (SMILES)	Ki [nM]
COc1cc(N2CCN(C)CC2)ccc1Nc1nc(Cc2c(Cl)cccc2Cl)cc2nc[nH]c(=O)c12 [Example 5, 7-(2,6-dichlorobenzyl)-5-{[2-methoxy-4-(4-methylpiperazin-1-yl)phenyl]amino}pyrido[4,3-d]pyrimidin-4(3H)-one]	7
COc1cc(N2CCNCC2)ccc1Nc1cc(Cc2ccccc2Cl)nc2cc[nH]c(=O)c12 [Example 31, 2-(2-chlorobenzyl)-4-{[2-methoxy-4-(piperazin-1-yl)phenyl]amino}-1,6-naphthyridin-5(6H)-one]	7
COc1cc(N2CCNCC2)ccc1Nc1cc(Cc2c(Cl)cccc2Cl)nc2cc[nH]c(=O)c12 [Example 2, 2-(2,6-dichlorobenzyl)-4-{[2-methoxy-4-(piperazin-1-yl)phenyl]amino}-1,6-naphthyridin-5(6H)-one]	4
COc1cc(C(=O)NCCCCN(C)C)ccc1Nc1nc(Cc2c(Cl)cccc2Cl)cc2cc[nH]c(=O)c12 [Example 28, 4-{[3-(2,6-dichlorobenzyl)-8-oxo-7,8-dihydro-2,7-naphthyridin-1-yl]amino}-N-[4-(dimethylamino)butyl]-3-methoxybenzamide]	36
COc1cc(N2CCN(C)CC2)ccc1Nc1cc(Cc2c(Cl)cccc2Cl)nc2cc[nH]c(=O)c12 [Example 1, 2-(2,6-dichlorobenzyl)-4-{[2-methoxy-4-(4-methylpiperazin-1-yl)phenyl]amino}-1,6-naphthyridin-5 (6H)-one]	8
O=c1[nH]ccc2nc(Cc3c(Cl)cccc3Cl)cc(Nc3ccc(N4CCNCC4)c(F)c3)c12 [Example 13, 2-(2,6-dichlorobenzyl)-4-(3-fluoro-4-(piperazin-1-yl)phenylamino)-1,6-naphthyridin-5(6H)-one]	3
COc1cc(C(=O)NCCN2CCCCC2)ccc1Nc1cc(Cc2c(Cl)cccc2Cl)nc2cc[nH]c(=O)c12 [Example 24, 4-{[2-(2,6-dichlorobenzyl)-5-oxo-5,6-dihydro-1,6-naphthyridin-4-yl]amino}-3-methoxy-N-[2-(piperidin-1-yl)ethyl]benzamide]	8
COc1cc(C(=O)NCCCN2CCOCC2)ccc1Nc1nc(Cc2c(Cl)cccc2Cl)cc2cc[nH]c(=O)c12 [Example 19, 4-{[3-(2,6-dichlorobenzyl)-8-oxo-7,8-dihydro-2,7-naphthyridin-1-yl]amino}-3-methoxy-N-[3-(morpholin-4-yl)propyl]benzamide]	25
COc1cc(C(=O)NCCN2CCCC2)ccc1Nc1nc(Cc2c(Cl)cccc2Cl)cc2cc[nH]c(=O)c12 [Example 22, 4-{[3-(2,6-dichlorobenzyl)-8-oxo-7,8-dihydro-2,7-naphthyridin-1-yl]amino}-3-methoxy-N-[2-(pyrrolidin-1-yl)ethyl]benzamide]	54
COc1cc(N2CCNCC2)ccc1Nc1cc(Cc2c(Cl)cccc2Cl)nc2nc[nH]c(=O)c12 [Example 11, 7-(2,6-dichlorobenzyl)-5-{[2-methoxy-4-(piperazin-1-yl)phenyl]amino}pyrido[2,3-d]pyrimidin-4(3H)-one]	70
O=c1[nH]ccc2cc(Cc3c(Cl)cccc3Cl)nc(Nc3ccc(N4CCNCC4)cc3)c12 [Example 9, 6-(2,6-dichlorobenzyl)-8-{[4-(piperazin-1-yl)phenyl]amino}-2,7-naphthyridin-1(2H)-one]	14
O=c1[nH]ccc2cc(Cc3c(F)cccc3Cl)nc(Nc3ccc(N4CCNCC4)cc3)c12 [Example 16, 6-(2-chloro-6-fluorobenzyl)-8-{[4-(piperazin-1-yl)phenyl]amino}-2,7-naphthyridin-1(2H)-one]	480
COc1cc(C(=O)N2CCN(C)CC2)ccc1Nc1cc(Cc2c(Cl)cccc2Cl)nc2cc[nH]c(=O)c12 [Example 20, 2-(2,6-dichlorobenzyl)-4-({2-methoxy-4-[(4-methylpiperazin-1-yl)carbonyl]phenyl}amino)-1,6-naphthyridin-5(6H)-one]	51
COc1cc(C(=O)N2CCNCC2)ccc1Nc1cc(Cc2c(Cl)cccc2Cl)nc2cc[nH]c(=O)c12 [Example 29, 2-(2,6-dichlorobenzyl)-4-{[2-methoxy-4-(piperazin-1-ylcarbonyl)phenyl]amino}-1,6-naphthyridin-5(6H)-one]	11
COc1cc(N2CCC(N(C)C)CC2)ccc1Nc1nc(Cc2c(Cl)cccc2Cl)cc2cc[nH]c(=O)c12 [Example 10, 6-(2,6-dichlorobenzyl)-8-({4-[4-(dimethylamino)piperidin-1-yl]-2-methoxyphenyl}amino)-2,7-naphthyridin-1(2H)-one]	180
COc1cc(C(=O)N2CCN(C)CC2)ccc1Nc1nc(Cc2c(Cl)cccc2Cl)cc2cc[nH]c(=O)c12 [Example 17, 6-(2,6-dichlorobenzyl)-8-({2-methoxy-4-[(4-methylpiperazin-1-yl)carbonyl]phenyl}amino)-2,7-naphthyridin-1(2H)-one]	> 1000

Structure (SMILES)	Ki [nM]
O=c1[nH]ccc2nc(Cc3c(Cl)cccc3Cl)cc(Nc3ccc(N4CCNCC4)cc3)c12 [Example 3, 2-(2,6-dichlorobenzyl)-4-{[4-(piperazin-1-yl)phenyl]amino}-1,6-naphthyridin-5(6H)-one]	72
COc1cc(C(=O)NCCN2CCN(C)CC2)ccc1Nc1cc(Cc2c(Cl)cccc2Cl)nc2cc[nH]c(=O)c12 [Example 25, 4-{[2-(2,6-dichlorobenzyl)-5-oxo-5,6-dihydro-1,6-naphthyridin-4-yl]amino}-3-methoxy-N-[2-(4-methylpiperazin-1-yl)ethyl]benzamide]	22
COc1cc(C(=O)NCCCN2CCOCC2)ccc1Nc1cc(Cc2c(Cl)cccc2Cl)nc2cc[nH]c(=O)c12 [Example 18, 4-{[2-(2,6-dichlorobenzyl)-5-oxo-5,6-dihydro-1,6-naphthyridin-4-yl]amino}-3-methoxy-N-[3-(morpholin-4-yl)propyl]benzamide]	51
COc1cc(N2CCNCC2)ccc1Nc1nc(Cc2c(Cl)cccc2Cl)cc2nc[nH]c(=O)c12 [Example 6, 7-(2,6-dichlorobenzyl)-5-{[2-methoxy-4-(piperazin-1-yl)phenyl]amino}pyrido[4,3-d]pyrimidin-4(3H)-one]	6
COc1cc(N2CCNCC2)ccc1Nc1nc(Cc2c(Cl)cccc2Cl)cc2cc[nH]c(=O)c12 [Example 8, 6-(2,6-dichlorobenzyl)-8-{[2-methoxy-4-(piperazin-1-yl)phenyl]amino}-2,7-naphthyridin-1(2H)-one]	3
COc1cc(C(=O)NCCN2CCN(C)CC2)ccc1Nc1nc(Cc2c(Cl)cccc2Cl)cc2cc[nH]c(=O)c12 [Example 26, 4-{[3-(2,6-dichlorobenzyl)-8-oxo-7,8-dihydro-2,7-naphthyridin-1-yl]amino}-3-methoxy-N-[2-(4-methylpiperazin-1-yl)ethyl]benzamide]	212
COc1cc(N2CCNCC2)ccc1Nc1nc(Cc2c(Cl)cccc2Cl)nc2nc[nH]c(=O)c12 [Example 12, 7-(2,6-dichlorobenzyl)-5-{[2-methoxy-4-(piperazin-1-yl)phenyl]amino}pyrimido[4,5-d]pyrimidin-4(3H)-one]	13
O=c1[nH]ccc2nc(Cc3c(Cl)cccc3Cl)nc(Nc3ccc(N4CCNCC4)cc3)c12 [Example 15, 2-(2,6-dichlorobenzyl)-4-{[4-(piperazin-1-yl)phenyl]amino}pyrido[4,3-d]pyrimidin-5(6H)-one]	1450
COc1cc(N2CCN(C)CC2)ccc1Nc1nc(Cc2c(Cl)cccc2Cl)cc2cc[nH]c(=O)c12 [Example 4, 6-(2,6-dichlorobenzyl)-8-{[2-methoxy-4-(4-methylpiperazin-1-yl)phenyl]amino}-2,7-naphthyridin-1(2H)-one]	64
COc1cc(C(=O)NCCCCN(C)C)ccc1Nc1cc(Cc2c(Cl)cccc2Cl)nc2cc[nH]c(=O)c12 [Example 30, 4-{[2-(2,6-dichlorobenzyl)-5-oxo-5,6-dihydro-1,6-naphthyridin-4-yl]amino}-N-[4-(dimethylamino)butyl]-3-methoxybenzamide]	20
COc1cc(N2CCNCC2)ccc1Nc1nc(Cc2c(Cl)cccc2Cl)nc2cc[nH]c(=O)c12 [Example 14, 2-(2,6-dichlorobenzyl)-4-{[2-methoxy-4-(piperazin-1-yl)phenyl]amino}pyrido[4,3-d]pyrimidin-5(6H)-one]	84
COc1cc(C(=O)NCCN(C)C)ccc1Nc1cc(Cc2c(Cl)cccc2Cl)nc2cc[nH]c(=O)c12 [Example 23, 4-{[2-(2,6-dichlorobenzyl)-5-oxo-5,6-dihydro-1,6-naphthyridin-4-yl]amino}-N-[2-(dimethylamino)ethyl]-3-methoxybenzamide]	12
COc1cc(C(=O)NCCN2CCCC2)ccc1Nc1cc(Cc2c(Cl)cccc2Cl)nc2cc[nH]c(=O)c12 [Example 21, 4-{[2-(2,6-dichlorobenzyl)-5-oxo-5,6-dihydro-1,6-naphthyridin-4-yl]amino}-3-methoxy-N-[2-(pyrrolidin-1-yl)ethyl]benzamide]	25
COc1cc(C(=O)NCCN2CCCCC2)ccc1Nc1nc(Cc2c(Cl)cccc2Cl)cc2cc[nH]c(=O)c12 [Example 27, 4-{[3-(2,6-dichlorobenzyl)-8-oxo-7,8-dihydro-2,7-naphthyridin-1-yl]amino}-3-methoxy-N-[2-(piperidin-1-yl)ethyl]benzamide]	17
O=c1[nH]cnc2cc(Cc3c(Cl)cccc3Cl)nc(Nc3ccc(N4CCNCC4)cc3)c12 [Example 7, 7-(2,6-dichlorobenzyl)-5-{[4-(piperazin-1-yl)phenyl]amino}pyrido[4,3-d]pyrimidin-4(3H)-one]	10
